According to US20140275257A1, “N-ACETYL CYSTEINE COMPOSITIONS IN THE TREATMENT OF SYSTEMIC LUPUS ERYTHEMATOSUS” (Foundation for the State University of New York, priority 2013, published 2014):

Key:
[1] = test system: mTOR; assay: CD3/CD28 stimulation-induced mTOR activity in normal PBL pretreated with NAC in vitro; assay type: cell-based, human; conditions: pretreatment by NAC in vitro (data not shown)
From the text: Δψm is subject to regulation by an oxidation-reduction equilibrium of ROI, pyridine nucleotides (NADH/NAD+NADPH/NADP) and GSH. (Fernandez, D. and Perl, A. “Metabolic control of T cell activation and death in SLE,” Autoimmun. Rev., 8: 184-189 (2009)). Without being bound by theory, it is believed that NAC can modulate mitochondrial hyperpolarization (MHP), directly, via neutralizing ROI or, indirectly, via sparing NADPH and promoting de novo GSH production. […] NAC-induced MHP occurred with a marked increase in NO production, which is required for mitochondrial biogenesis. (Nagy, G. et al., “Nitric Oxide-Dependent Mitochondrial Biogenesis Generates Ca^2+ Signaling Profile of Lupus T Cells,” J. Immunol., 173: 3676-3683 (2004)). In turn, NO production depends on the availability of NADPH. Without being bound by theory, it is believed that increased NO production can result from sparing of NADPH by NAC. (Fernandez, D. and Perl, A. “Metabolic control of T cell activation and death in SLE,” Autoimmun. Rev., 8: 184-189 (2009)). Without being bound by theory, NAC acts by blocking mTOR, which is a sensor of Δψm and oxidative stress in lupus T cells. (Fernandez, D. R. et al., “Activation of mTOR controls the loss of TCRζ □ in lupus T cells through HRES-1/Rab4-regulated lysosomal degradation,” J. Immunol., 182: 2063-2073 (2009)). […]

[2] = test system: SLE patients; assay: ADHD Self-Report Scale (ASRS) in SLE patients treated with NAC; assay type: in vivo, human
Procedure: The clinical trial design, eligibility criteria, randomization, blinding, monitoring of safety, tolerance and efficacy on NAC in patients with SLE was as described in Example 1, approved by the Food and Drug Administration (IND No: 101,320; clinicaltrials.gov identifier: NCT00775476). As an addendum to the Example 1 study, ASRS was evaluated as an exploratory outcome in 24 SLE patients randomized to receive orally either placebo or NAC in one of two treatment arms: 1,200 mg or 2,400 mg twice daily for three months. 12 patients were enrolled per dosing group, 9 received NAC while 3 received placebo. Due to missing data, 6 patients enrolled in the placebo arm and 8 patients enrolled into each of the two NAC treatment arms could be evaluated.
The ASRS is an 18-item scale that is used to assess the current status of the 18 DSM-IV symptoms of ADHD in adults. (Kessler, R. C. et al., “The World Health Organization Adult ADHD Self-Report Scale (ASRS): a short screening scale for use in the general population,” Psychol. Med., 35(2): 245-256 (2005)). Symptoms are rated on a frequency basis: 0=never, 1=rarely, 2=sometimes, 3=often, and 4=very often. Nine items assess inattention and nine assess hyperactivity-impulsivity. The 9 inattentive symptoms are summed to create the ASRS A subscale; the 9 hyperactive-impulsive symptoms are summed to compute the ASRS B subscale. These two scales are summed to compute the total score. For all scales, higher scores indicate more symptoms. The scale has high concurrent validity with a rater-administered ADHD symptom scale. (Adler, L. A. et al., “Validity of Pilot Adult ADHD Self-Report Scale (ASRS) to Rate Adult ADHD Symptoms,” Ann Clin. Psychiatry 18(3): 145-148 (2006)). As described in Example 1, SLE disease activity was assessed by using the British Isles Lupus Assessment Group (BILAG) (Isenberg, D. A. et al., “BILAG 2004. Development and initial validation of an updated version of the British Isles Lupus Assessment Group's disease activity index for patients with systemic lupus erythematosus,” Rheumatology, 44(7): 902-906 (2005)) and Systemic Lupus Erythematosus Disease Activity Index (SLEDAI) (Hochberg, M. C., “Updating the American College of Rheumatology revised criteria for the classification of systemic lupus erythematosus,” Arth. Rheum., 40(9): 1725 (1997)). Fatigue was estimated using the Fatigue Assessment Scale (FAS) (Michielsen, H. J. et al., “Psychometric qualities of a brief self-rated fatigue measure: The Fatigue Assessment Scale,” J. Psychosom. Res., 54(4): 345-352 (2003)).
Overall clinical effectiveness of NAC relative to placebo was analyzed with multilevel modeling as implemented in the STATA routine XTMIXED (from StataCorp, College Station, Tex.), with the three nested levels being drug group, subject within drug group and study visit within subject. All models included fixed effects for drug group, study visit and the drug group by study visit interaction along with random intercepts at each design level. […] Two-tailed paired t-test was used to assess the effects of placebo and of each and all NAC doses on clinical indices recorded on visits 2-5 relative to visit 1; p<0.05 was considered significant. Patients and controls were compared with two-tailed unpaired t-test. Correlations and t-test were performed with Prism (GraphPad, San Diego, Calif.).

[3] = test system: GSH in peripheral blood lymphocytes (PBL); assay: HPLC assay of GSH in peripheral blood lymphocytes (PBL) of SLE patients; assay type: in vivo, human
Procedure: Reduced glutathione (GSH) was measured by reverse phase ion-exchange HPLC using UV detection at 365 nm, as described in Gergely, P. J. et al., “Mitochondrial hyperpolarization and ATP depletion in patients with systemic lupus erythematosus,” Arth. Rheum., 46: 175-190 (2002); and Hanczko, R. et al., “Prevention of hepatocarcinogenesis and acetaminophen-induced liver failure in transaldolase-deficient mice by N-acetylcysteine,” J. Clin. Invest., 119: 1546-1557 (2009). The disclosures of each of these references are incorporated by reference herein in their entirety.
GSH was measured in whole blood and peripheral blood lymphocytes (PBL) before (visit 1; 0 h) and after the first NAC/placebo dose (visit 1; 3 h and 6 h) and upon each monthly follow-up visit (visits 2-4: between 9-11 am after having taken the last NAC/placebo capsule 8 pm the night before), and after 1 month wash-out (visit 5). HPLC analysis required ˜0.25 ml of whole blood and 5×10^6 PBL which were obtained from a total of 10 ml of blood collected at each time point.

[4] = NAC Dose 3, end of 3-month treatment

`CC(=O)N[C@@H](CS)C(=O)O` [NAC, N-acetyl-L-cysteine] was tested, and the “CD3/CD28 stimulation-induced mTOR activity” value [1] was “blocking”, the “cognitive/inattentive ASRS A scores” value ([2]; NAC Dose 2 (2.4 g/day), z=−3.31, p=0.001) was “reduced” and the “hyperactivity/impulsive components of ASRS scores (ASRS B scores)” value ([2]; NAC Dose 2 and 3, alone or combined (data not shown)) was “not affected”. For the same compound, the “ASRS Total scores” value ([2]; NAC Dose 3 (4.8 g/day), after 2 and 3 months of treatment) was “diminished”, the “cognitive/inattentive ASRS A scores” value ([2]; NAC Dose 3 (4.8 g/day), z=−4.04, p<0.0001) was “reduced” and the “standardized mean difference effect size (Cohen's D), ASRS A scores” value [2, 4] was 0.71. For the same compound, the “standardized mean difference effect size (Cohen's D), ASRS B scores” value [2, 4] was 0.44, the “standardized mean difference effect size (Cohen's D), ASRS Total scores” value [2, 4] was 0.72 and the “ASRS Total scores” value ([2]; NAC Doses 2 and 3 combined, after 3 months) was “reduced”. For the same compound, the “reduction in ASRS Total scores relative to placebo (multilevel modeling)” value ([2]; NAC Doses 2 and 3 combined, XTMIXED z=−2.09, p=0.037) was “greater”, the “cognitive/inattentive ASRS A scores” value ([2]; NAC Doses 2 and 3 combined, z=−3.41, p=0.001) was “reduced” and the “GSH in PBL” value ([3]; after 3-month treatment with NAC doses 2 and 3 considered together (visit 4; p=0.027)) was “increased”. For the same compound, the “GSH in PBL” value ([3]; after one month washout, NAC dose 3 or doses 2 and 3 combined) was “dropped below baseline”, the “GSH in PBL” value ([3]; single NAC dose of 1.2 g, after 6 h (p=0.022)) was “increased” and the “GSH in PBL” value ([3]; single NAC dose of 2.4 g, after 3 h (p=0.032) and 6 h (p=0.003)) was “increased”.
